Results on 5 molecules are retold here after ChEMBL document CHEMBL1135249, “Probing the overlap of chorismate mutase and prephenate dehydrogenase sites in the escherichia coli T-protein: a dehydrogenase-selective inhibitor” (Bioorg Med Chem Lett, 2002).

A short description of assay [1]: Tested for its inhibitory activity against the enzyme chorismate mutase (CM) in Escherichia coli T-protein; no effect up to 1 mM.
Assay [2] in a line: Tested for the inhibition against prephenate dehydrogenase. On the set-up: species or system Escherichia coli.
Assay [3] in a line: Tested for its inhibitory activity against the enzyme prephenate dehydrogenase (PDH) in Escherichia coli T-protein.
Assay [4] in a line: Tested for its inhibitory activity against the enzyme chorismate mutase (CM) in Escherichia coli T-protein.

The structures appear in SMILES notation.

Consider `O=C(O)[C@@H]1Cc2cccc3cccc(c23)C[C@H]1C(=O)O` (racemic), for which the inhibitory constant (Ki) result in assay [1] was “no effect up to 1 mM”; in assay [3], 212 µM. In assay [2], this molecule came in with an IC50 of 250 µM.
For `C=C(O[C@@H]1C=C(C(=O)O)C(O)C(O)[C@H]1O)C(=O)O` (stereo partly specified), the values for the Ki in assay [4] and in assay [3] were 410 µM and 110 µM, respectively.
Taken in the same sequence, the figures for `O=C(O)[C@]12C[C@H]3C[C@H](C[C@H](C3)C1)C2` were 430 µM and 310 µM.
Turning to `O=P(O)(O)C12C[C@H]3C[C@@H](C1)C[C@@H](C2)C3`, the Ki was 200 µM in assay [4] and 140 µM in assay [3].
Take `C=C(O[C@@H]1C=C(C(=O)O)CCC1O)C(=O)O` (stereo partly specified): the results for the Ki in assay [4] and in assay [3] were 430 µM and 590 µM, respectively.

By Ki is commonly meant the equilibrium dissociation constant of an inhibitor or competing ligand from its target. Low readings indicate a stronger hold on the target, high ones a looser hold on the target. A word on the IC50: it is the midpoint of a concentration-inhibition curve.
